We go through 7 compounds from publication PMC11635053, “Development of a homotrimeric PSMA radioligand based on the NOTI chelating platform” (EJNMMI Radiopharmacy and Chemistry, 2024).

Data set [1] concerns the target T1, PSMA (Homo sapiens, UniProt Q04609).
T1 construct: host or cells: LNCaP
Kind of data set: Competitive binding assay in LNCaP cells with [177Lu]Lu-PSMA-617 as radioligand. Particulars: for IC50: LNCaP cells, radioligand [177Lu]Lu-PSMA-617, 2 h at r.t., read-out: IC50 (half maximum competitive inhibitory concentration). On the procedure:
In order to establish a structure–activity relationship, the binding affinity of the metal-free and ^natGa-complexes of the conjugates 7, 8, and 9 were determined in the PSMA-positive human prostate cancer cell line LNCaP by a competitive binding assay as previously reported using [^177Lu]Lu-PSMA-617 as the radioligand (Stemler et al. [2021]). The conjugate Glu-CO-Lys-Ahx-HBED-CC (PSMA-11) was included as the control.
The competitive binding assay was carried out using a MultiScreen®HTS Vacuum Manifold system (Merck, Germany) with 96-well filter plates. Serial dilutions of the metal-free conjugates and corresponding ^natGa complexes were prepared to obtain 7 final concentrations ranging from 0 to 1000 nM for each compound. PSMA-11 was also tested as control. Experiments were performed twice in triplicate for each compound. Freshly prepared ^177Lu-labeled PSMA-617 was used as the radioligand. A volume of 1 μL of [^177Lu]Lu-PSMA-617 stock solution (2.83 μM) was added into each tube of the dilution series (radioligand concentration 3.14 nM). For the experiment, 10^5 LNCaP cells were seeded into each well. The final volume of each well was 150 μL (100 μL cells in medium + 50 μL inhibitor in PBS). The experiment was incubated for 2 h at r.t. in a plate shaker. Then, the supernatants were removed by vacuum. Wells were furthermore washed out with ice-cold PBS (3 × 200 μL, pH 7.4). The filters were punched into tubes for the subsequent quantification of the activity in a Gamma-counter. A nonlinear regression algorithm was applied by the software GraphPad Prism to determine the specific inhibitory concentrations of 50% for the tested radiotracers.

The subject of data set [2] is PSMA-positive LNCaP cells. Kind of data set: Cell uptake / internalization of 68Ga-labeled conjugates in LNCaP cells. It counts as cell-based, human. Particulars: 1 h incubation; for Cell uptake: in words. On the procedure:
Next, the cellular uptake of the ^68Ga-labeled conjugates 7, 8, and 9 as well as [^68Ga]Ga-PSMA-11 was determined in PSMA-positive LNCaP cells.
LNCaP cells were seeded (10^6 cells well^−1) in poly-L-lysine coated 6-well plates 24 h before the experiment. Experiments were performed twice in triplicate for each compound. The radiolabeling solutions of [^68Ga]Ga-7, [^68Ga]Ga-8, [^68Ga]Ga-9, and [^68Ga]Ga-PSMA-11 were first diluted with PBS (pH 7.4) to a concentration of […]. 100 µL of this dilution were added to 3900 µL PBS (pH 7.4) to obtain final stock solutions of each radiolabeled compound (0.025 nmol mL^−1).
On the day of the experiment, the medium was replaced by fresh preheated medium (1.4 mL w/o blocking, 1.3 mL with blocking) and the cells incubated for 1 h at 37 °C. Next, the blocking solution was added (100 μL, 2500 pmol) to the corresponding wells. Finally, the corresponding radiolabeled conjugate (100 μL, 2.5 pmol) was added to a final assay volume of 1.5 mL well^−1. After 1 h incubation time, the supernatants were removed and the cells were washed carefully with ice-cold PBS buffer (2 × 1 mL, pH 7.4) followed by a subsequent glycine–HCl washing step (50 mM, pH 2.8, 2 × 1 mL well^−1). Cells were incubated with the glycine–HCl solution for 4 min at r.t. Next, corresponding fractions were transferred into counting tubes. Subsequently, the cells were lysed by adding NaOH (2 × 1 mL well^−1, 0.1 M) and the lysed fractions were also transferred into counting tubes. As standards, 100 µL of each radiolabeled conjugate stock solution (0.025 nmol mL^−1, 2.5 pmol) were pipetted into counting tubes containing 2 mL PBS buffer. The activity of the standards, the surface bound fractions and the internalized fractions were measured in a Gamma counter. Means were calculated and subtracted by the background. The percentages of unspecific and specific cell-surface bound and internalized activity were calculated from the standards.

Data set [3] relates to LNCaP xenograft bearing mice. Particulars: 1 h p.i., cited from earlier work.
For data set [4], the system named is patient with metastatic prostate cancer. Kind of data set: Clinical PET/CT imaging. Particulars: patient, 1 h p.i. On the procedure: PET/CT was performed approximately 1, 2, and 3 h after intravenous injection of 107 MBq of [^68Ga]Ga-9 and 1 h after injection of 113 MBq [^68Ga]Ga-PSMA-11 in a patient with metastatic prostate cancer. Whole body imaging extending from vertex to mid-femur was performed in 3D-ToF mode on a Biograph mCT 40 scanner (Siemens Medical Solutions, Knoxville, TN, USA) with an extended field of view of 21.4 cm. PET acquisition time was 3 min bed position^−1. Low-dose CT acquisition was performed for attenuation correction and anatomical localization using an X-ray tube voltage of 120 kV and a modulation of the tube current (maximal tube current: 30 mA; CARE Dose 4D software Siemens Healthineers, Erlangen, Germany) followed by reconstruction with a soft tissue reconstruction kernel (Bf37) to a slice thickness of 5 mm (increment 2–4 mm). PET emission data were additionally corrected for decay, randoms and scatter and reconstructed applying an iterative 3D ordered subset expectation maximization algorithm (3 iterations; 21 subsets) withGaussian filtering to transaxial resolution of 5 mm at full width at half maximum. The matrix size was 200 × 200 mm and the reconstructed pixel size was 5.0 mm.

Data set [5] deals with human serum proteins. Description: in vitro. The following applies: male; for Protein binding: 1 h; for fraction unbound at 1 h: Protein binding. It counts as in vitro ADME. On the procedure: To determine the protein bound fraction of each trimeric radiotracer, 100 μL of the radiolabeling solution of the corresponding ^68Ga-labeled conjugate were added to preheated (37 °C) 1000 μL human serum (male, AB, Sigma Aldrich, USA) in triplicates. Samples were incubated for 1 h at 37 °C. After cooling to r.t., the samples were centrifuged utilizing molecular cutoff (30 kDa) centrifuge tubes at 4 G for 5 min at 4 °C. The filters were additionally rinsed with PBS buffer (2 × 100 μL). The background subtracted activity in the filters and the filtrates were determined in a Gamma counter and the percentage of protein bound fractions were calculated.

Data set [6] is classed as in vitro ADME. The following applies: 2 h. On the procedure: 100 μL of the radiolabeling solution of each ^68Ga-labeled tracer were added to preheated (37 °C) 1000 μL human serum (male, AB, Sigma Aldrich, USA) in triplicates and incubated at 37 °C. At 1 and 2 h, 100 µL aliquots were taken, mixed with 100 µL ice-cold acetonitrile, and centrifuged at 4 G for 5 min at 4 °C. The corresponding filtrates were kept on ice until HPLC analysis. The supernatants were then analyzed by radio-RP-HPLC and fractions of intact compounds were calculated from the HPLC chromatograms. (gradient 4,Gamma-ray detector: 100–900 keV, injection volume: 20 μl). tR ([^68Ga]Ga-7) = 12.1 min, tR ([^68Ga]Ga-8) = 14.4 min, tR ([^68Ga]Ga-9) = 25.2 min.

Where [7] appears, read: 2.5 pmol per 10^6 cells, 68Ga-labeled.
Where [8] appears, read: lesions listed as 1 × prostate, 2 × lymph node metastasis.

The term fraction unbound denotes the share of the substance not bound to proteins or other matrix.

Molecules are shown by their SMILES. Like-named read-outs stand apart in the source and are kept apart here.

T1 sequence (Q04609 whole entry): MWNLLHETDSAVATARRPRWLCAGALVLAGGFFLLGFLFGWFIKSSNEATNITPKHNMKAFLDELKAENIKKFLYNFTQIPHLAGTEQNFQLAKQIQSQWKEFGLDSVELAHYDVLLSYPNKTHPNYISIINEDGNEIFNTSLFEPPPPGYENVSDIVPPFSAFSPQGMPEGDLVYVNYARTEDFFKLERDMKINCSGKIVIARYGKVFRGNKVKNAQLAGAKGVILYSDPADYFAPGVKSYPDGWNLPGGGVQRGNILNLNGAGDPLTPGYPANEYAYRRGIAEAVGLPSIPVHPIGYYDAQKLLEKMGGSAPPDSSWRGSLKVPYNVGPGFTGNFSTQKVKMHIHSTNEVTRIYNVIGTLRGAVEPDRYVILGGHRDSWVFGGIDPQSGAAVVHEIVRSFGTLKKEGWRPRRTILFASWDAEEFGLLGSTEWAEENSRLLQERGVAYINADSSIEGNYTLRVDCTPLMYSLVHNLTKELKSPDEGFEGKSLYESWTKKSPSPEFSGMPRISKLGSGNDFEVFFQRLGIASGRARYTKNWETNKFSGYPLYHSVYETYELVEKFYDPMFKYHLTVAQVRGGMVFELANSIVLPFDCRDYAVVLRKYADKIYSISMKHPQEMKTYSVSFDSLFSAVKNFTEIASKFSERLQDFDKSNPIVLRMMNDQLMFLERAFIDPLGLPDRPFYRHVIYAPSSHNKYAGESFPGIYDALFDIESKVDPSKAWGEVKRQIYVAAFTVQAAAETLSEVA

Take `O=C(O)CC[C@H](NC(=O)N[C@@H](CCCCNC(=O)CCCCn1ccnc1CN1CCN(Cc2nccn2CCCCC(=O)NCCCC[C@H](NC(=O)N[C@@H](CCC(=O)O)C(=O)O)C(=O)O)CCN(Cc2nccn2CCCCC(=O)NCCCC[C@H](NC(=O)N[C@@H](CCC(=O)O)C(=O)O)C(=O)O)CC1)C(=O)O)C(=O)O` [Compound 7, (2S,2'S,2''S)−2,2',2''-(((((1S,1'S,1''S)-((5,5',5''-(((1,4,7-triazonane-1,4,7-triyl)tris(methylene))tris(1H-imidazole-2,1-diyl))tris(pentanoyl))tris(azanediyl))tris(1-carboxypentane-5,1-diyl))tris(azanediyl))tris(carbonyl))tris(azanediyl))triglutaric acid]: the IC50 in data set [1] stood at 264 nM.

Take `O=C(O)CC[C@H](NC(=O)N[C@@H](CCCCNC(=O)CCCCCNC(=O)CCCCn1ccnc1CN1CCN(Cc2nccn2CCCCC(=O)NCCCCCC(=O)NCCCC[C@H](NC(=O)N[C@@H](CCC(=O)O)C(=O)O)C(=O)O)CCN(Cc2nccn2CCCCC(=O)NCCCCCC(=O)NCCCC[C@H](NC(=O)N[C@@H](CCC(=O)O)C(=O)O)C(=O)O)CC1)C(=O)O)C(=O)O` [Compound 8, (3S,3'S,3''S,7S,7'S,7''S)−24,24',24''-(((1,4,7-triazonane-1,4,7-triyl)tris(methylene))tris(1H-imidazole-2,1-diyl))tris(5,13,20-trioxo-4,6,12,19-tetraazatetracosane-1,3,7-tricarboxylic acid)]: the IC50 in data set [1] was 65 nM. Moreover, in data set [1] (LNCaP competitive binding, metal-free conjugate), the “Factor by which affinity is lower compared to PSMA-11” value is ~ 3.

Turning to `O=C(O)CC[C@H](NC(=O)N[C@@H](CCCCNC(=O)[C@H](Cc1ccc2ccccc2c1)NC(=O)[C@H]1CC[C@H](CNC(=O)CCCCn2ccnc2CN2CCN(Cc3nccn3CCCCC(=O)NC[C@H]3CC[C@H](C(=O)N[C@@H](Cc4ccc5ccccc5c4)C(=O)NCCCC[C@H](NC(=O)N[C@@H](CCC(=O)O)C(=O)O)C(=O)O)CC3)CCN(Cc3nccn3CCCCC(=O)NC[C@H]3CC[C@H](C(=O)N[C@@H](Cc4ccc5ccccc5c4)C(=O)NCCCC[C@H](NC(=O)N[C@@H](CCC(=O)O)C(=O)O)C(=O)O)CC3)CC2)CC1)C(=O)O)C(=O)O` [Compound 9], the IC50 in data set [1] amounted to 5.9 nM. The compound further came in with a Cell internalization in data set [2] (setting [7]) of 17.8 ± 2.5%.

As for `O=C(O)CCc1ccc(O)c(CN(CCN(CC(=O)O)Cc2cc(CCC(=O)NCCCCCC(=O)NCCCC[C@H](NC(=O)N[C@@H](CCC(=O)O)C(=O)O)C(=O)O)ccc2O)CC(=O)O)c1` [PSMA-11, Glu-CO-Lys-Ahx-HBED-CC, reference compound], the IC50 in data set [1] was found to be 18.5 nM.

In data set [2] (setting [7]), `O=C([O-])CN(CCN(CC(=O)[O-])Cc1cc(CCC(=O)NCCCCCC(=O)NCCCC[C@H](NC(=O)N[C@@H](CCC(=O)O)C(=O)O)C(=O)O)ccc1[O-])Cc1cc(CCC(=O)O)ccc1[O-].[68Ga+3].[OH3+]` [[^68Ga]Ga-PSMA-11, reference compound] displayed a Cell internalization of 5.2 ± 0.2% and a Cell-surface bound fraction of 4.5 ± 0.2%. For the same compound, in data set [3] (ref Benešová et al. ([2015])), the Kidney uptake is 187.4 ± 25.3 % IA g^−1, the Tumor uptake is 10.58 ± 4.5 % IA g^−1 and the Tumor-to-kidney ratio is recorded as 0.06. In addition, in data set [3] (ref Eder et al. ([2012])), the Kidney uptake is reported as 139.4 ± 21.4 % IA g^−1, the Liver uptake was 0.87 ± 0.05 % IA g^−1, the Tumor uptake was 7.70 ± 1.45 % IA g^−1 and the Tumor-to-kidney ratio is recorded as 0.06. Also, the Tumor-to-liver ratio in data set [3] (ref Eder et al. ([2012])) is 8.85. Besides, in data set [4], the “SUVpeak in the parotid gland” value is recorded as 37.0, the “SUVpeak in the submandibular gland” value is recorded as 31.6, the SUVpeak kidneys is 126.3 and the SUVpeak liver is listed as 8.5. In addition, in data set [4] (setting [8]), the “SUVpeak, first target lesion” value stood at 35.3; the “SUVpeak, second target lesion” value worked out at 16.3; the “SUVpeak, third target lesion” value was determined as 20.6.

In the case of `O=C(O)CC[C@H](NC(=O)N[C@@H](CCCCNC(=O)CCCCn1ccnc1CN1CCN(Cc2nccn2CCCCC(=O)NCCCC[C@H](NC(=O)N[C@@H](CCC(=O)O)C(=O)O)C(=O)O)CCN(Cc2nccn2CCCCC(=O)NCCCC[C@H](NC(=O)N[C@@H](CCC(=O)O)C(=O)O)C(=O)O)CC1)C(=O)O)C(=O)O` [^nat/68Ga-7, metal not drawn], in data set [1], the IC50 came out at 450 nM. Besides, in data set [2], the Cell uptake result is “negligible”. In data set [5], this compound had a Protein binding of 63.8 ± 4.0% and a fraction unbound at 1 h of about 0.36. Moreover, the “Metabolic stability in human serum” value in data set [6] is listed as “no significant degradation”.

Consider `O=C(O)CC[C@H](NC(=O)N[C@@H](CCCCNC(=O)CCCCCNC(=O)CCCCn1ccnc1CN1CCN(Cc2nccn2CCCCC(=O)NCCCCCC(=O)NCCCC[C@H](NC(=O)N[C@@H](CCC(=O)O)C(=O)O)C(=O)O)CCN(Cc2nccn2CCCCC(=O)NCCCCCC(=O)NCCCC[C@H](NC(=O)N[C@@H](CCC(=O)O)C(=O)O)C(=O)O)CC1)C(=O)O)C(=O)O` [^nat/68Ga-8, metal not drawn], for which the IC50 in data set [1] stood at 90 nM. In data set [2] (setting [7]), this compound came in with a Cell internalization of 0.08 ± 0.02%. The Cell uptake result in data set [2] was “negligible”. In data set [5], the Protein binding is 68.2 ± 1.5% and the unbound share (fraction unbound) at 1 h was about 0.35. Also, the “Metabolic stability in human serum” value in data set [6] is “no significant degradation”.
